IC50 data for 24 molecules are collected here from US10519177B2, “Heterocyclic compounds and uses thereof” (Plexxikon Inc., priority 2013, dated 2019).

The subject of the experiment is bromodomain. The experiment can be described thus: at least one of the bromodomain cell assays of Example 57. Particulars: at least one of the bromodomain cell assays described in Example 57; read-out: IC50 in at least one of the bromodomain cell assays. Format: cell-based.

The IC50 is the midpoint of a concentration-inhibition curve. Regarding `Cc1ccc(-c2cn(CC3(C)CCCCC3)c3cc(-c4c(C)noc4C)cnc23)cc1` [P-0792, 3,5-dimethyl-4-[1-[(1-methylcyclohexyl)methyl]-3-(p-tolyl)pyrrolo[3,2-b]pyridin-6-yl]isoxazole], the 50% inhibitory concentration (IC50) was below 10 µM.

Regarding `Cc1ccc(-c2cn(CC3CCOCC3)c3cc(-c4c(C)noc4C)cnc23)cc1` [P-0793, 3,5-dimethyl-4-[3-(p-tolyl)-1-(tetrahydropyran-4-ylmethyl)pyrrolo[3,2-b]pyridin-6-yl]isoxazole], the IC50 is below 10 µM.

Regarding `Cc1ccc(-c2cn(CC3CC4CC4C3)c3cc(-c4c(C)noc4C)cnc23)cc1` (stereo not drawn) [P-0795, 4-[1-(3-bicyclo[3.1.0]hexanylmethyl)-3-(p-tolyl)pyrrolo[3,2-b]pyridin-6-yl]-3,5-dimethyl-isoxazole], the IC50 is below 10 µM.

For `Cc1noc(C)c1-c1cnc2c(-c3ccc4c(c3)COC4=O)cn(CC3CCC(F)(F)CC3)c2c1` [P-0796, 5-[1-[(4,4-difluorocyclohexyl)methyl]-6-(3,5-dimethylisoxazol-4-yl)pyrrolo[3,2-b]pyridin-3-yl]-3H-isobenzofuran-1-one], the IC50 was below 10 µM.

Regarding `Cc1noc(C)c1-c1cnc2c(-c3ccc4c(c3)COC4=O)cn(CC3CCCCC3)c2c1` [P-0797, 5-[1-(cyclohexylmethyl)-6-(3,5-dimethylisoxazol-4-yl)pyrrolo[3,2-b]pyridin-3-yl]-3H-isobenzofuran-1-one], the IC50 was below 10 µM.

With `Cc1noc(C)c1-c1cnc2c(-c3ccc4c(c3)CCOC4=O)cn(CC3CCC(F)(F)CC3)c2c1` [P-0798, 6-[1-[(4,4-difluorocyclohexyl)methyl]-6-(3,5-dimethylisoxazol-4-yl)pyrrolo[3,2-b]pyridin-3-yl]isochroman-1-one], the IC50 was below 10 µM.

Turning to `Cc1noc(C)c1-c1cnc2c(-c3ccc4c(c3)CCOC4=O)cn(CC3CCCCC3)c2c1` [P-0799, 6-[1-(cyclohexylmethyl)-6-(3,5-dimethylisoxazol-4-yl)pyrrolo[3,2-b]pyridin-3-yl]isochroman-1-one], the IC50 is below 10 µM.

Regarding `Cc1noc(C)c1-c1cnc2c(-c3ccc4c(c3)OC(=O)C4)cn(CC3CCC(F)(F)CC3)c2c1` [P-0800, 6-[1-[(4,4-difluorocyclohexyl)methyl]-6-(3,5-dimethylisoxazol-4-yl)pyrrolo[3,2-b]pyridin-3-yl]-3H-benzofuran-2-one], the IC50 was below 10 µM.

Consider `Cc1noc(C)c1-c1cnc2c(-c3ccc4c(c3)OC(=O)C4)cn(CC3CCCCC3)c2c1` [P-0801, 6-[1-(cyclohexylmethyl)-6-(3,5-dimethylisoxazol-4-yl)pyrrolo[3,2-b]pyridin-3-yl]-3H-benzofuran-2-one], for which the IC50 was below 10 µM.

For `Cc1noc(C)c1-c1cnc2c(-c3ccc(C(C)(C)C)cc3)cn(Cc3ccccn3)c2c1` [P-0804, 4-[3-(4-tert-butylphenyl)-1-(2-pyridylmethyl)pyrrolo[3,2-b]pyridin-6-yl]-3,5-dimethyl-isoxazole], the IC50 is below 10 µM.

As to `Cc1ccc(-c2cn(CC3(F)CCC(F)(F)CC3)c3cc(-c4c(C)nnn4C)cnc23)cc1` [P-0808, 6-(3,5-dimethyltriazol-4-yl)-3-(p-tolyl)-1-[(1,4,4-trifluorocyclohexyl)methyl]pyrrolo[3,2-b]pyridine], the IC50 is below 10 µM.

Consider `Cc1nnn(C)c1-c1cnc2c(-c3ccc(C(C)(C)C)cc3)cn(CC3(F)CCC(F)(F)CC3)c2c1` [P-0809, 3-(4-tert-butylphenyl)-6-(3,5-dimethyltriazol-4-yl)-1-[(1,4,4-trifluorocyclohexyl)methyl]pyrrolo[3,2-b]pyridine], for which the IC50 is below 10 µM.

Take `Cc1nnn(C)c1-c1cnc2c(-c3ccc(C(C)(C)C)cc3)cn(CC3CCC(F)(F)CC3)c2c1` [P-0810, 3-(4-tert-butylphenyl)-1-[(4,4-difluorocyclohexyl)methyl]-6-(3,5-dimethyltriazol-4-yl)pyrrolo[3,2-b]pyridine]: the IC50 is below 10 µM.

With `Cc1nnn(C)c1-c1cnc2c(-c3ccc(CC(=O)O)cc3)cn(CC3CCC(F)(F)CC3)c2c1` [P-0811, 2-[4-[1-[(4,4-difluorocyclohexyl)methyl]-6-(3,5-dimethyltriazol-4-yl)pyrrolo[3,2-b]pyridin-3-yl]phenyl]acetic acid], the IC50 is below 10 µM.

On to `Cc1nnn(C)c1-c1cnc2c(-c3ccc(CC(=O)O)cc3)cn(CC3(F)CCC(F)(F)CC3)c2c1` [P-0812, 2-[4-[6-(3,5-dimethyltriazol-4-yl)-1-[(1,4,4-trifluorocyclohexyl)methyl]pyrrolo[3,2-b]pyridin-3-yl]phenyl]acetic acid], for which the IC50 is below 10 µM.

Turning to `Cc1noc(C)c1-c1cnc2c(-c3ccc(C(C)(C)C)cc3)cn([C@@H](c3ccccc3)c3ccccn3)c2c1` [P-0813, 4-[3-(4-tert-butylphenyl)-1-[(S)-phenyl(2-pyridyl)methyl]pyrrolo[3,2-b]pyridin-6-yl]-3,5-dimethyl-isoxazole], the IC50 was below 10 µM.

Turning to `Cc1noc(C)c1-c1cnc2c(-c3ccc(C(C)(C)C)cc3)cn([C@H](c3ccccc3)c3ccccn3)c2c1` [P-0814, 4-[3-(4-tert-butylphenyl)-1-[(R)-phenyl(2-pyridyl)methyl]pyrrolo[3,2-b]pyridin-6-yl]-3,5-dimethyl-isoxazole], the IC50 is below 10 µM.

With `Cc1noc(C)c1-c1cnc2c(-c3ccc(C(=O)O)cc3)cn([C@H](c3ccccn3)C3CCCCC3)c2c1` [P-0815, 4-[1-[(S)-cyclohexyl(2-pyridyl)methyl]-6-(3,5-dimethylisoxazol-4-yl)pyrrolo[3,2-b]pyridin-3-yl]benzoic acid], the IC50 is below 10 µM.

With `Cc1noc(C)c1-c1cnc2c(-c3ccc(C(=O)O)cc3)cn([C@@H](c3ccccn3)C3CCCCC3)c2c1` [P-0816, 4-[1-[(R)-cyclohexyl(2-pyridyl)methyl]-6-(3,5-dimethy7lisoxazol-4-yl)pyrrolo[3,2-b]pyridin-3-yl]benzoic acid], the IC50 is below 10 µM.

Turning to `Cc1ccc(-c2cn([C@@H](c3ccccn3)C3CCCCC3)c3cc(-c4c(C)noc4C)cnc23)cc1` [P-0817, 4-[1-[(R)-cyclohexyl(2-pyridyl)methyl]-3-(p-tolyl)pyrrolo[3,2-b]pyridin-6-yl]-3,5-dimethyl-isoxazole], the IC50 was below 10 µM.

As to `Cc1ccc(-c2cn([C@H](c3ccccn3)C3CCCCC3)c3cc(-c4c(C)noc4C)cnc23)cc1` [P-0818, 4-[1-[(S)-cyclohexyl(2-pyridyl)methyl]-3-(p-tolyl)pyrrolo[3,2-b]pyridin-6-yl]-3,5-dimethyl-isoxazole], the IC50 is below 10 µM.

Take `Cc1noc(C)c1-c1cnc2c(-c3ccc(C(=O)O)cc3)cn([C@H](c3ccccn3)C3CCCC3)c2c1` [P-0819, 4-[1-[(S)-cyclopentyl(2-pyridyl)methyl]-6-(3,5-dimethylisoxazol-4-yl)pyrrolo[3,2-b]pyridin-3-yl]benzoic acid]: the IC50 was below 10 µM.

On to `Cc1noc(C)c1-c1cnc2c(-c3ccc(C(=O)O)cc3)cn([C@@H](c3ccccn3)C3CCCC3)c2c1` [P-0820, 4-[1-[(R)-cyclopentyl(2-pyridyl)methyl]-6-(3,5-dimethylisoxazol-4-yl)pyrrolo[3,2-b]pyridin-3-yl]benzoic acid], for which the IC50 is below 10 µM.

With `Cc1ccc(-c2cn([C@@H](c3ccccn3)C3CCCC3)c3cc(-c4c(C)noc4C)cnc23)cc1` [P-0821, 4-[1-[(R)-cyclopentyl(2-pyridyl)methyl]-3-(p-tolyl)pyrrolo[3,2-b]pyridin-6-yl]-3,5-dimethyl-isoxazole], the IC50 was below 10 µM.
